Drawing on US20110033393A1, “Hydrazone Compounds and Their Use” (priority 2009, published 2011), this text covers insulin secretion and GLP-1 secretion for 1 compound.

One test has as its system Beta-TC-6 cells. As to the kind of experiment: Insulin release enhancement in insulinoma cell line Beta-TC-6 (Assay 1). The format is cell-based, mouse. The method, then:
Assay I: Insulin release enhancement by TRPM5 inhibitors was tested by the following procedure. Beta-TC-6 cells are an insulin-secreting cell line derived from transgenic mice expressing the large T-antigen of simian virus 40 (SV40) in pancreatic beta-cells as described by Poitout et al., Diabetes, 44:306-313 (1995). The cell line was obtained from ATCC cell bank CAT# CRL-11506 and grown in Dulbecco's Modified Eagle's Medium (DMEM) with 15% fetal bovine serum (FBS), 4 mM glutamine, 4.5 g/L glucose, 110 mg/L sodium pyruvate and 1× penn/strep antibiotic mix in a 37° C. incubator with 5% CO2. Cultures were routinely split 1:2 twice a week with the aid of trypsin.
The day before the assay 0.15×10^6 Beta-TC-6 cells were plated into each well of 96 well plates (Greiner bio-one V-bottom, Cat#: 651 180). The cells were spun at 1200 rpm for 5 min and cultured overnight. […] Insulin release in the supernatant was assessed using a commercially available ELISA kit (Mercodia Cat#: 10-1149-10) according to the manufacturer's protocol. The data were expressed as pg of insulin per number of cells. […]

The test system of a further test is GLUTag cells. As to the kind of experiment: GLP-1 release using GLUTag cells (Assay 1). The format is cell-based, mouse. The method, then:
Mouse GLUTag cells are a native intestinal cell line which expresses TRPM5. The cell line was obtained from Dr. Daniel J. Drucker in the Division of Endocrinology, Department of Medicine, at University of Toronto, and grown in Invitrogen Dulbecco's Modified Eagle's Medium (DMEM) high glucose (Cat#: 11995) with 10% fetal bovine serum (FBS) and 1× penn/strep antibiotic mix in a 37° C. incubator with 5% CO2.
Assay 1: All reagents and media were pre-warmed to room temperature prior to the beginning of the experiment.
Seeding of Cell Plate: BD 96-well Matrigel-coated plates (Fisher, Cat #: 08-774-166) were rehydrated using 100 μL of plating media (Invitrogen Cat #: 31985) OPTI-Modified Eagle's Medium (MEM) with 10% FBS and 1× penn/strep antibiotic mix and incubated for 30 minutes in a 37° C. incubator and 5% CO2. The rehydration media was aspirated and GLUTag cells were plated at 100 ul per well at a density of 7.5×10^5 cells/ml. The plates were then incubated overnight in a 37° C. incubator and 5% CO2.
The following protocol utilized the Millipore GLP-1 ELISA Kit (Cat. #: EGLP-35K) to analyze GLP-1 secretion from GLUTag cells in the presence of TRPM5 inhibitors/enhancers and glucose.
ELISA Assay Day 1: Stock solutions and dilution plates of TRPM5 inhibitors or enhancers were prepared. […]

As to `Cc1cc(/C=N/NC(=O)C2CC2c2ccccc2)cc2cccnc12` (racemic) [Example 10, trans-N′-((8-Methylquinolin-6-yl)methylene)-2-phenylcyclopropanecarbohydrazide], the insulin secretion entry in the test on Beta-TC-6 cells (Beta-TC-6, in the presence of 0.3 mM glucose) is reported as “does not occur”; in the test with Beta-TC-6 cells (Beta-TC-6, in the presence of 1 mM glucose), “dose-dependent increase of insulin secretion”. Further, the figures for the GLP-1 secretion result in the test with GLUTag cells (in the presence of 0.1 mM glucose) and in the test on GLUTag cells (in the presence of 0.3 mM glucose) were “is not observed” and “dose-dependent increase of GLP-1 secretion”, respectively.
